{"source": "patent US20100269215A1", "about": "(SNU R&DB Foundation, priority 2006, published 2010)", "key": {"[1]": {"test_system": "TflA protein", "test": "Degradation of toxoflavin and its derivatives by TflA protein (TLC enzyme analysis)", "type": "biochemical, Paenibacillus polymyxa JH2", "details": "within given time; see FIG. 8", "procedure": "5 μM TflA protein, 10 μM MnCl2 and 5 mM DTT (dithiothreitol) were added to analysis buffer (50 mM sodium phosphate (pH 6.5)) to give 200 μl mixture and the reaction was carried out at 25 °C. […] After 10 min of the reaction, 200 μl of chloroform was added to stop the reaction. The chloroform layer was dried completely, then 10 μl of 100% methanol was added. An aliquot taken from the reaction mixture comprising methanol was applied on a TLC plate using pipette. The resulting plate was placed in TLC chamber containing mixed solvents of chloroform and methanol (95:5, V:V) at room temperature. TLC was visualized under UV illuminator (254 nm and 365 nm)."}, "[2]": {"test_system": "Arabidopsis Col-0, non-transgenic organisms", "test": "Germination and growth on toxoflavin medium, non-transgenic Arabidopsis", "type": "in vivo, Arabidopsis thaliana", "details": "20 uM toxoflavin"}, "[3]": {"test_system": "leaves of wild rice", "test": "Toxoflavin treatment of cut rice leaves, wild type", "details": "toxoflavin 0, 25, 50 or 100 μM, under light; 40 hrs after the treatment", "procedure": "(§1) Thus, the experiment of the present invention was carried out under light."}, "[4]": {"test_system": "non-transgenic organisms (Arabidopsis Col-0)", "test": "Seeds on MS plate containing toxoflavin, non-transgenic organisms", "type": "in vivo, Arabidopsis thaliana", "details": "media comprising 20 uM toxoflavin; ten days"}, "[5]": {"test_system": "wild rice leaves (Dongjinbyeo wild-type plant)", "test": "Toxoflavin treatment of leaf pieces, wild-type rice", "type": "in vivo", "details": "0, 25, 50 or 100 μM toxoflavin, 48 hrs, under light; seen 40 hrs after treatment", "procedure": "as §1"}, "[6]": {"test_system": "rice callus transformed with pCamLA vector", "test": "Selection with toxoflavin of rice callus transformed with pCamLA", "type": "cell-based"}, "[7]": {"test_system": "rice callus transformed with pCamLA vector", "test": "Survival of rice callus under selection with toxoflavin, pCamLA", "type": "cell-based"}, "[8]": {"test_system": "Arabidopsis Col-0, transgenic organisms with tflA", "test": "Photo-bleaching test, transgenic Arabidopsis", "type": "in vivo, Arabidopsis thaliana", "details": "FIG. 24", "source_text": "(§2) Such results correspond to the result of PCR described above."}, "[9]": {"test_system": "transgenic organisms", "test": "Photo-bleaching test, transgenic Arabidopsis", "type": "in vivo, Arabidopsis thaliana", "details": "transgenic organisms selected for the test; FIG. 24", "source_text": "as §2"}, "[10]": {"test_system": "rice callus transformed with pTflA vector", "test": "Survival of rice callus under selection with toxoflavin, pTflA", "type": "cell-based"}, "[11]": {"test_system": "transgenic plants to which the toxoflavin-resistant gene has been incorporated", "test": "Seeds on MS plate containing toxoflavin, transgenic plants", "type": "in vivo, Arabidopsis thaliana", "details": "media comprising 20 uM toxoflavin; ten days", "procedure": "Detailed method for the transformation is described below. • 1. […] 0.03% silwet was added to the suspension. • 4. […] The plants were wrapped with a plastic bag. Bags were removed two days later.\nRoots were also growing well."}, "[12]": {"test_system": "Arabidopsis Col-0", "test": "Photo-bleaching test, non-transgenic Arabidopsis", "type": "in vivo, Arabidopsis thaliana", "source_text": "as §2"}, "[13]": {"test_system": "Arabidopsis Col-0, non-transgenic organisms", "test": "Photo-bleaching test, non-transgenic Arabidopsis", "type": "in vivo, Arabidopsis thaliana", "source_text": "as §2"}, "[14]": {"test_system": "rice callus transformed with pTflA vector", "test": "Selection with toxoflavin of rice callus transformed with pTflA", "type": "cell-based"}, "[15]": {"test_system": "leaves of the transgenic plants to which tflA gene has been introduced", "test": "Toxoflavin treatment of cut rice leaves, transgenic T3 plants", "details": "toxoflavin 0, 25, 50 or 100 μM, under light, 48 hrs", "procedure": "as §1"}, "[16]": {"test_system": "leaves of transgenic T3 rice plant with tflA gene", "test": "Toxoflavin treatment of leaf pieces, transgenic T3 rice plant expressing tflA", "type": "in vivo", "details": "0, 25, 50 or 100 μM toxoflavin, 48 hrs, under light", "procedure": "as §1"}, "[17]": {"test_system": "Cn1ncnc2c(=O)n(C)c(=O)nc1-2", "test": "purified protein, by the assay type", "details": "other: toxoflavin 80-200 μM, 50 mM sodium phosphate pH 6.5, MnCl2 and DTT, Lineweaver-Burk plot", "protocol": "Each of experimental points is a mean value that is calculated from data obtained from at least of three measurements."}, "[18]": {"details": "toxoflavin 5 ug/ml, selection before redifferentiation, FIG. 18"}, "[19]": {"details": "toxoflavin 5 ug/ml, before redifferentiation"}, "[20]": {"details": "toxoflavin 7.5 ug/ml, four weeks after placement on redifferentiation medium"}, "[21]": {"details": "various concentrations, even at low concentration"}}, "data": [{"compound": "4,8-dihydrotoxoflavin", "values": [{"measurement": "degradation by TflA protein", "setting": "[1]", "value": "completely degraded"}]}, {"compound": "CC1=NN(C)c2[nH]c(=O)n(C)c(=O)c2N1", "note": "[3-methyl 4,8-dihydrotoxoflavin]", "values": [{"measurement": "degradation by TflA protein", "setting": "[1]", "value": "partially degraded"}]}, {"compound": "Cc1n[nH]c2nc(=O)n(C)c(=O)c-2n1", "note": "[3-methylreumycin]", "values": [{"measurement": "degradation by TflA protein", "setting": "[1]", "value": "completely degraded"}]}, {"compound": "Cc1nc2c(=O)n(C)c(=O)nc-2n(C)n1", "note": "[3-methyltoxoflavin]", "values": [{"measurement": "degradation by TflA protein", "setting": "[1]", "value": "completely degraded"}]}, {"compound": "Cn1c(=O)nc2[nH]nc(-c3ccccc3)nc-2c1=O", "note": "[3-phenylreumycin]", "values": [{"measurement": "degradation by TflA protein", "setting": "[1]", "value": "not degraded at all"}]}, {"compound": "Cn1nc(-c2ccccc2)nc2c(=O)n(C)c(=O)nc1-2", "note": "[3-phenyltoxoflavin]", "values": [{"measurement": "degradation by TflA protein", "setting": "[1]", "value": "not degraded at all"}]}, {"compound": "O=c1[nH]c(=O)c2cc3ccccc3nc2[nH]1", "note": "[5-deazaflavin]", "values": [{"measurement": "degradation by TflA protein", "setting": "[1]", "value": "not degraded at all"}]}, {"compound": "Cn1c(=O)c2ncnnc2n(C)c1=O", "note": "[fervenulin]", "values": [{"measurement": "degradation by TflA protein", "setting": "[1]", "value": "partially degraded"}]}, {"compound": "Cn1c(=O)[nH]c2nncnc2c1=O", "note": "[reumycin]", "values": [{"measurement": "degradation by TflA protein", "setting": "[1]", "value": "partially degraded"}]}, {"compound": "Cn1ncnc2c(=O)n(C)c(=O)nc1-2", "note": "[toxoflavin]", "values": [{"measurement": "germination", "setting": "[2]", "value": "germination did not occur for most of the non-transgenic organisms"}, {"measurement": "root growth where germination occurred", "setting": "[2]", "value": "root growth was not normal"}, {"measurement": "discoloration of leaves", "setting": "[3]", "value": "discoloration due to the toxin started to show up"}, {"measurement": "germination and root growth", "setting": "[4]", "value": "germination did not occur for most of the non-transgenic organisms"}, {"measurement": "discoloration of leaves", "setting": "[5]", "value": "discoloration due to the toxin started to show up"}, {"measurement": "survival of callus", "setting": "[6]; [18]", "value": "most of the callus died out"}, {"measurement": "survival of callus", "setting": "[6]; toxoflavin 7.5 ug/ml, four weeks after placement on medium for redifferentiation, FIG. 19", "value": "most of the callus died out"}, {"measurement": "survival of callus", "setting": "[7]; [19]", "value": "most of the callus died out"}, {"measurement": "survival of callus", "setting": "[7]; [20]", "value": "most of the callus died out"}, {"measurement": "photo-bleaching", "setting": "[8]", "value": "photo-bleaching was not observed"}, {"measurement": "photo-bleaching", "setting": "[9]", "value": "photo-bleaching was not observed"}, {"measurement": "degradation by TflA protein", "setting": "[1]", "value": "completely degraded"}, {"measurement": "survival of callus", "setting": "[10]; [19]", "value": "only a part of the callus died out"}, {"measurement": "survival of callus", "setting": "[10]; [20]", "value": "the callus was redifferentiated normally"}, {"measurement": "growth", "setting": "[11]", "value": "show normal growth"}, {"measurement": "photo-bleaching", "setting": "[12]; non-transgenic organisms, FIG. 24", "value": "the bleaching occurred"}, {"measurement": "bleaching effect on the plant", "setting": "[12]; [21]", "value": "exerts a bleaching effect"}, {"measurement": "photo-bleaching", "setting": "[13]; bleaching test, FIG. 24", "value": "the bleaching occurred"}, {"measurement": "bleaching effect", "setting": "[13]; [21]", "value": "even at low concentration toxoflavin exerts a bleaching effect"}, {"measurement": "survival of callus", "setting": "[14]; [18]", "value": "only a part of the callus died out"}, {"measurement": "survival of callus", "setting": "[14]; toxoflavin 7.5 ug/ml, four weeks after placement on medium for redifferentiation, FIG. 20", "value": "the callus was redifferentiated normally"}, {"measurement": "discoloration of leaves", "setting": "[15]", "value": "no such discoloration was observed"}, {"measurement": "discoloration of leaves", "setting": "[16]", "value": "no such discoloration was observed"}]}, {"compound": "Paenibacillus polymyxa JH2 TflA protein, wild type, N-terminal His-tagged (His-TflA), SEQ ID NO: 2 (Paenibacillus polymyxa)", "values": [{"measurement": "Km", "setting": "[17]", "value": 69.72, "unit": "µM"}]}]}
